The structures appear in SMILES notation. pIC50: −log10 of the molar value.

The assay relates to IFNγ-Induced NO Production. The assay is described as follows: Nitric Oxide Suppression Assay (Suppression of IFNγ-Induced NO Production). The format is cell-based. The note with it: RAW264.7; RAW 264.7 mouse macrophage cells; 2 hour pre-treatment with compound (3 μM to 0.3 nM, 10 point curve); 20 ng/mL interferon gamma, ~18 hour; Griess detection; n=2-3 in duplicates. As for the experimental part: RAW 264.7, a mouse macrophage cell line, was obtained from American Type Culture Collection (Manassas Va.) and maintained in the log phase of growth in Dulbecco's Modified Eagle's Medium (DMEM), 10% heat inactivated fetal calf serum and 100 units/mL antibiotic-antimycotic (AA). Cells were cultured and maintained in a humidified incubator at 37° C. under 5% CO2 and 95% air. Cells were sub-cultured every 3 days by scraping and were not used beyond passage 20. All cell culture supplies were obtained from Life Technologies (Grand Island, N.Y.).
RAW 264.7 cells were plated 1 day in advance of experiment at a concentration of 80,000 cells/well onto CellBIND® 96 well plates (Corning, N.Y.) in a total volume of 100 μL. The next day, pre-treat cells with compounds (from 3 μM to 0.3 nM serially diluted in a 10 point curve) from a 10× stock by adding 10 μL per well in complete DMEM media containing 10% fetal calf serum. The plates were centrifuged for 3 minutes at 400×g at room temperature followed by 2 hour incubation at 37° C. The cells were then incubated overnight at 37° C. with 10 μL of the insult, interferon gamma (R&D Systems, Minneapolis, Minn.), from a 10× stock for a final concentration of 20 ng/mL. The plates were centrifuged for 3 minutes at 400×g at room temperature followed by ˜18 hour incubation at 37° C. The following day, transfer 50 μL cell culture supernatant from each well into a clear bottom 96 well plate and follow the instructions from Promega's Griess Detection Kit #G2930 (Madison, Wis.) which involves the addition of 50 μL of the provided sulfanilamide solution for a 5-10 minute incubation at room temperature. Next add 50 μL of the provided N-1-napthylethylenediamine dihydrochloride (NED) solution for a 5-10 minute incubation at room temperature and protected from light. If any air bubbles were introduced into the well, the plates need to be centrifuged for 5 minutes at 400×g at room temperature to avoid interference with absorbance readings. The plates were read for absorbance within 30 minutes with a filter between 520 nm and 550 nm.
For the ability of compounds to suppress the increase in nitric oxide release, the percent maximal intensity of nitric oxide detected in each well was normalized to that induced by the peak value for 20 ng/mL of interferon gamma alone and plotted against the compound concentration to calculate IC50 values and to control for plate-to-plate variability. Concentration-response data were analyzed using GraphPad Prism (San Diego, Calif.); the IC50 values were derived from a single curve fit to the mean data of n=2-3, in duplicates.
All compounds were dissolved in dimethyl sulfoxide at 10 mM stock solutions and tested at a concentration that the dimethyl sulfoxide levels never exceeded 1%.
As for `Cc1nc(-c2ccc(=O)n(C)c2)c2c(n1)[C@@]1(c3ccccc3)C=C(C#N)C(=O)[C@@H](C)[C@@H]1CC2` [Example 44, (6aS,7S,10aR)-2,7-dimethyl-4-(1-methyl-6-oxo-1,6-dihydropyridin-3-yl)-8-oxo-10a-phenyl-5,6,6a,7,8,10a-hexahydrobenzo[h]quinazoline-9-carbonitrile], the pIC50 is 7.29.
Regarding `Cc1nc(-c2ccc3ncccc3c2)c2c(n1)[C@@]1(c3ccccc3)C=C(C#N)C(=O)[C@@H](C)[C@@H]1CC2` [Example 45, (6aS,7S,10aR)-2,7-dimethyl-8-oxo-10a-phenyl-4-(quinolin-6-yl)-5,6,6a,7,8,10a-hexahydrobenzo[h]quinazoline-9-carbonitrile], the negative logarithm of the IC50 (pIC50) is 6.97.
In the case of `CC(=O)OCCc1cccc(-c2nc(C)nc3c2CC[C@H]2[C@H](C)C(=O)C(C#N)=C[C@]32c2ccccc2)c1` [Example 46, 2-{3-[(6aS,7S,10aR)-9-cyano-2,7-dimethyl-8-oxo-10a-phenyl-5,6,6a,7,8,10a-hexahydrobenzo[h]quinazolin-4-yl]phenyl}ethyl acetate] it was 8.12; in that of `Cc1nc(-c2cccc(CCO)c2)c2c(n1)[C@@]1(c3ccccc3)C=C(C#N)C(=O)[C@@H](C)[C@@H]1CC2` [Example 47, (6aS,7S,10aR)-4-[3-(2-hydroxyethyl)phenyl]-2,7-dimethyl-8-oxo-10a-phenyl-5,6,6a,7,8,10a-hexahydrobenzo[h]quinazoline-9-carbonitrile], 7.73.
Under `C[C@@H]1C(=O)C(C#N)=C[C@]2(c3ccccc3)c3nn(C(=O)Nc4cccnc4)cc3CC[C@@H]12` [Example 48, (5aS,6S,9aR)-8-cyano-6-methyl-7-oxo-9a-phenyl-N-(pyridin-3-yl)-4,5,5a,6,7,9a-hexahydro-2H-benzo[g]indazole-2-carboxamide] stands 7.40; under `C[C@@H]1C(=O)C(C#N)=C[C@]2(c3ccccc3)c3nc(-c4cncnc4)ncc3CC[C@@H]12` [Example 49, (6aS,7S,10aR)-7-methyl-8-oxo-10a-phenyl-2-(pyrimidin-5-yl)-5,6,6a,7,8,10a-hexahydrobenzo[h]quinazoline-9-carbonitrile], 8.15; under `C[C@@H]1C(=O)C(C#N)=C[C@]2(c3ccc(F)cc3)c3ncncc3CC[C@@H]12` [Example 50, (6aS,7S,10aR)-10a-(4-fluorophenyl)-7-methyl-8-oxo-5,6,6a,7,8,10a-hexahydrobenzo[h]quinazoline-9-carbonitrile], 7.99.
For the compound `C[C@@H]1C(=O)C(C#N)=C[C@]2(c3ccc(F)cc3)c3nc(-c4cccnc4)ncc3CC[C@@H]12` [Example 51, (6aS,7S,10aR)-10a-(4-fluorophenyl)-7-methyl-8-oxo-2-(pyridin-3-yl)-5,6,6a,7,8,10a-hexahydrobenzo[h]quinazoline-9-carbonitrile], the pIC50 was 8.21.
Under `C[C@@H]1C(=O)C(C#N)=C[C@]2(c3ccccc3)c3nn(C)cc3CC[C@@H]12` [Example 52, (5aS,6S,9aR)-2,6-dimethyl-7-oxo-9a-phenyl-4,5,5a,6,7,9a-hexahydro-2H-benzo[g]indazole-8-carbonitrile] stands 7.27; under `C[C@@H]1C(=O)C(C#N)=C[C@]2(c3cccc(F)c3)c3n[nH]cc3CC[C@@H]12` [Example 53, (5aS,6S,9aR)-9a-(3-fluorophenyl)-6-methyl-7-oxo-4,5,5a,6,7,9a-hexahydro-2H-benzo[g]indazole-8-carbonitrile], 7.50; under `C[C@@H]1C(=O)C(C#N)=C[C@]2(c3ccc(F)cc3)c3n[nH]cc3CC[C@@H]12` [Example 54, (5aS,6S,9aR)-9a-(4-fluorophenyl)-6-methyl-7-oxo-4,5,5a,6,7,9a-hexahydro-2H-benzo[g]indazole-8-carbonitrile], 7.45.
In the case of `C[C@@H]1C(=O)C(C#N)=C[C@]2(c3cccc(F)c3)c3ncncc3CC[C@@H]12` [Example 55, (6aS,7S,10aR)-10a-(3-fluorophenyl)-7-methyl-8-oxo-5,6,6a,7,8,10a-hexahydrobenzo[h]quinazoline-9-carbonitrile] it was 7.94.

Usually pIC50 stands for the IC50 on a negative log10 scale, so that one unit is a factor of ten.

Values taken from patent US9464082B2, “Aryl and arylalkyl substituted pyrazolyl and pyrimidinyl tricyclic enones as antioxidant inflammation modulators” (AbbVie Inc., priority 2014, dated 2016).
